Test results published in publication PMC10342533, “Novel Tetrazole Derivatives Targeting Tubulin Endowed with Antiproliferative Activity against Glioblastoma Cells” (International Journal of Molecular Sciences, 2023).
Values after ≈ are worked out from the molar mass of the structure shown.

What was measured:
[1] = Aqueous solubility, shake-flask method, phosphate buffer pH 7.4; type: physicochemical; conditions: thermodynamic from solid, phosphate buffer pH 7.4, shake-flask, mean ± SD of three experiments
Procedure: The aqueous solubility of tetrazole derivatives was determined by the shaking flask methodology in phosphate buffer at pH 7.4, microfiltration, and quantification of the saturated solutions via UV spectroscopy. […] The introduction of polar groups on the 3-indole position was favorable since the most soluble compounds were the oximes 16–19 (38–53 µg/mL), followed by the carbaldehyde series 12–15 (33–45 µg/mL), and the carbonitrile derivatives (25–40 µg/mL), whereas the unsubstituted indoles 8–11 were the least soluble series (19–35 µg/mL).
The aqueous solubility of the compounds was determined using the saturation shake-flask method. First, calibration lines at the maximum wavelength of absorbance were determined for each compound. Then, 5 mg of each compound was suspended in 500 µL of pH 7.4 buffer, and the resulting mixture was shaken for 72 h at room temperature and filtrated over a […] filter to remove the insoluble fraction. The concentration of the compound in the supernatant (saturated solution) was determined by measuring UV absorbance at the maximum wavelength of absorbance and interpolation in the calibration line. A Helios Alfa Spectrophotometer was used for the UV measurements. The aqueous solubility values are given as the average of three independent experiments.

[2] = system: HeLa (cervix epithelioid carcinoma); assay: Cell growth inhibition, MTT assay, HeLa; type: cell-based; conditions: Homo sapiens
Procedure: (§1) The ability of the synthesized compounds to inhibit the cell proliferation of human cancer cell lines was assayed by measuring cell viability through the use of the MTT method 72 h after treatment. For this purpose, representative cell lines of the most frequent kinds of cancer were selected, including the following: HeLa (cervix epithelioid carcinoma), MCF7 (breast adenocarcinoma), U87 MG (glioblastoma), T98G (temozolomide resistant glioblastoma), HepG2 (hepatocellular carcinoma), HCT8 (colorectal carcinoma), and HT-29 (colon adenocarcinoma).
(§2) The cell lines were obtained from ATTC (Manassas, VA, USA). […] The cells were periodically tested for Mycoplasma infection by using a MycoAlert kit (Lonza, Norwest, Australia), and only Mycoplasma-free cells were used in the experiments.
(§3) Then, every compound was added (10 µL/well) to a final concentration of 10 µM. Untreated cells were used as negative controls. The antiproliferative activity of compounds was measured 72 h after drug exposure through the MTT assay. […] For this purpose, compounds were used at different concentrations, ranging from 10^−10 to 10^−2 M. Measurements were performed in triplicate, and each experiment was repeated three times. The IC50 values were determined using Origin software (version 9.6, OriginLab, Washington, DC, USA).

[3] = system: MCF7 (breast adenocarcinoma); assay: Cell growth inhibition, MTT assay, MCF7; type: cell-based; conditions: Homo sapiens
Procedure: as §1, §2, §3

U87 MG (glioblastoma) = assay: Cell growth inhibition, MTT assay, U87 MG; type: cell-based; conditions: Homo sapiens, U-87 MG
Procedure: as §1, §2, §3

[4] = system: HepG2 (hepatocellular carcinoma); assay: Cell growth inhibition, MTT assay, HepG2; type: cell-based; conditions: Homo sapiens
Procedure: as §1, §2, §3

[5] = system: HCT8 (colorectal carcinoma); assay: Cell growth inhibition, MTT assay, HCT8; type: cell-based; conditions: Homo sapiens
Procedure: as §1, §2, §3

[6] = system: HT-29 (colon adenocarcinoma); assay: Cell growth inhibition, MTT assay, HT-29, without or with verapamil; type: cell-based, human
Procedure: as §1
Multidrug resistance (MDR) proteins, especially P-glycoprotein (P-gp), are often involved in resistance mechanisms affecting tubulin-binding drugs that are frequently related to the failure of cancer therapies. […] These pumps are also part of the blood–brain barrier.
as §2, §3

[7] = system: T98G (temozolomide resistant glioblastoma); assay: Cell growth inhibition, MTT assay, T98G; type: cell-based; conditions: Homo sapiens
Procedure: as §1, §2, §3

[8] = system: HEK-293 (embryonic kidney); assay: Cell growth inhibition, MTT assay, non-tumor HEK-293; type: cell-based; conditions: Homo sapiens
Procedure: The ability of the synthesized compounds to inhibit the cell proliferation of human cancer cell lines was assayed by measuring cell viability through the use of the MTT method 72 h after treatment. For this purpose, representative cell lines of the most frequent kinds of cancer were selected, including the following: HeLa (cervix epithelioid carcinoma), MCF7 (breast adenocarcinoma), U87 MG (glioblastoma), T98G (temozolomide resistant glioblastoma), HepG2 (hepatocellular carcinoma), HCT8 (colorectal carcinoma), and HT-29 (colon adenocarcinoma). […] The compounds were also tested against the non-tumor HEK-293 cells to study their selectivity toward cancer cells. […] The cell lines were obtained from ATTC (Manassas, VA, USA). […] The cells were periodically tested for Mycoplasma infection by using a MycoAlert kit (Lonza, Norwest, Australia), and only Mycoplasma-free cells were used in the experiments. […] Louis, MO, USA), which was dissolved in PBS at 5 mg/mL in accordance with the manufacturer's instructions. […] Untreated cells were used as negative controls. The antiproliferative activity of compounds was measured 72 h after drug exposure through the MTT assay. […] For this purpose, compounds were used at different concentrations, ranging from 10^-10 to 10^-2 M. Measurements were performed in triplicate, and each experiment was repeated three times. The IC50 values were determined using Origin software (version 9.6, OriginLab, Washington, DC, USA).

[9] = biological target: T1, microtubular protein isolated from calf brains (bovine brain tubulin) (Bos taurus, UniProt P81947+Q6B856); assay: Tubulin polymerization inhibition (TPI); type: biochemical; conditions: in vitro tubulin polymerization, mean ± SD
T1 construct: from tissue; host or cells: calf (bovine) brain
T1 sequence (Q6B856 whole entry): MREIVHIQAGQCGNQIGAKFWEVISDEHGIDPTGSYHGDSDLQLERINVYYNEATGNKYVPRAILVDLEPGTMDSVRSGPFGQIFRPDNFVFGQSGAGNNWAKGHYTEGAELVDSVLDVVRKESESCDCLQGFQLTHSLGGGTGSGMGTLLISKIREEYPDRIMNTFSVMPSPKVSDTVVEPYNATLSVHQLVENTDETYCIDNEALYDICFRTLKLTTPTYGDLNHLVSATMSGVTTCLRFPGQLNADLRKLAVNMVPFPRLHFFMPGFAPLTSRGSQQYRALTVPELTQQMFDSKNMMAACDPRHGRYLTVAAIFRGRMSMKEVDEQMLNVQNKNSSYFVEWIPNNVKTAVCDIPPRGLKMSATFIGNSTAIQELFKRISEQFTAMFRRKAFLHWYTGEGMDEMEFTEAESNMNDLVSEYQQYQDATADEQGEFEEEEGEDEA
T1 sequence (P81947 whole entry): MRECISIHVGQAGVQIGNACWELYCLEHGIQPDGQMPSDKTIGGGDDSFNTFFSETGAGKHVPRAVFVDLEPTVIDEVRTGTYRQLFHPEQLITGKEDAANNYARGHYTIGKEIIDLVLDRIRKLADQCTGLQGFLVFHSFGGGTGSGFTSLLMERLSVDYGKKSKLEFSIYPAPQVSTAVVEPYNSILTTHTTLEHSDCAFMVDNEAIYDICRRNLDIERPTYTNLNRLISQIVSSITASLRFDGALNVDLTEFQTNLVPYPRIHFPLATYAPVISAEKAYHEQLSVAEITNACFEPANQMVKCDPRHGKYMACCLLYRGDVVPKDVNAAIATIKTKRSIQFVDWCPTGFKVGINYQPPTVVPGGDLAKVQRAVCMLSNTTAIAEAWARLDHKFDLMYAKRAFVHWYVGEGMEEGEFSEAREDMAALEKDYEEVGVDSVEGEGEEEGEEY
Procedure: We evaluated the capacity of the new synthesized compounds to inhibit the polymerization of microtubular protein isolated from calf brains. The assays were performed by taking absorbance measurements to quantify the amount of polymer mass formed in the presence (or absence; negative controls) of the compounds.
Bovine brain tubulin was isolated as previously described by following a modified version of the Shelanski method. The protein was stored at −80 °C, and its concentration was determined by employing the Bradford method before each use. […] Tubulin polymerization, caused when heating the samples, was accompanied by an increase in the absorbance (at 450 nm) of the sample that was monitored by using a Helios α spectrophotometer. […] Measurements were performed in triplicate in two independent experiments using microtubular proteins from different preparations.

[10] = HCT-8, 72 h after drug exposure
[11] = Homo sapiens, HT-29, 72 h after drug exposure
[12] = Homo sapiens, HT-29, mean ± SD, Table S1
[13] = mean ± SD, Table S1, in the presence of verapamil (10 µM)
[14] = HEK293, 72 h, non-tumorigenic cell line

| Structure (SMILES) | solubility at 72 h [1] | IC50 ([2]; 72 h after drug exposure) | IC50 ([2]; mean ± SD, Table S1) | IC50 ([3]; 72 h after drug exposure) | IC50 ([3]; mean ± SD, Table S1) | IC50 (U87 MG (glioblastoma); mean ± SD, Table S1) | IC50 ([4]; mean ± SD, Table S1) | IC50 [5, 10] | IC50 ([5]; HCT-8, mean ± SD, Table S1) | IC50 [6, 11] | IC50 [6, 12] | IC50 [6, 13] | IC50 (U87 MG (glioblastoma); 72 h after drug exposure) | IC50 ([7]; 72 h, 72 h after drug exposure) | IC50 ([7]; mean ± SD, Table S1) | IC50 ([4]; 72 h after drug exposure) | IC50 [8, 14] | IC50 [9] | further results |
| --- | --- | --- | --- | --- | --- | --- | --- | --- | --- | --- | --- | --- | --- | --- | --- | --- | --- | --- | --- |
| COc1ccc(S(=O)(=O)Nc2cccnc2Nc2ccc(O)cc2)cc1 [ABT-751, reference compound] | 40 ± 0.3 µg/mL (≈ 108 µM) | 388 nM | 388 ± 3.9 nM | 180 nM | 180 ± 2.8 nM | 375 ± 5.4 nM | 327.1 ± 1.1 nM | 209 nM | 209.1 ± 2 nM | 213 nM | 213.5 ± 2.1 nM | 250 ± 2.9 nM |  |  |  |  |  |  |  |
| COc1ccc(/C=C\c2cc(OC)c(OC)c(OC)c2)cc1O [CA-4, combretastatin A4, reference compound] | 1.1 ± 0.1 µg/mL (≈ 3.48 µM) | 2 nM |  | 1 nM | 1.4 ± 0.1 nM | 10.1 ± 0.1 nM | 13.4 ± 0.2 nM | 220 nM | 220.4 ± 2 nM | 305 nM | 305.4 ± 2.5 nM | 327.5 ± 2.2 nM | 10 nM | 17 nM | 17.1 ± 0.2 nM | 13 nM | 721 nM |  |  |
| Cn1ccc2cc(-n3nnnc3-c3cc(Cl)nc(Cl)c3)ccc21 [Compound 8, 5-(5-(2,6-dichloropyridin-4-yl)-1H-tetrazol-1-yl)-1-methyl-1H-indole] | 19.3 ± 0.1 µg/mL (≈ 55.9 µM) | 45 nM | 45.1 ± 0.3 nM | 43 nM | 43.2 ± 0.4 nM | 32.4 ± 0.2 nM | 49.1 ± 0.5 nM | 49 nM | 49.4 ± 0.3 nM |  | 52.3 ± 0.4 nM | 52.4 ± 0.2 nM | 32 nM | 41 nM |  | 49 nM | 4720 nM | 2800 ± 100 nM |  |
| COc1cc(-c2nnnn2-c2ccc3c(ccn3C)c2)cc(Cl)n1 [Compound 9, 5-(5-(2-chloro-6-methoxypyridin-4-yl)-1H-tetrazol-1-yl)-1-methyl-1H-indole] | 35.4 ± 0.2 µg/mL (≈ 104 µM) | 72 nM | 72.5 ± 0.4 nM | 69 nM | 69.3 ± 0.5 nM | 48.1 ± 0.4 nM | 70.5 ± 0.5 nM | 75 nM | 75.4 ± 0.6 nM | 81 nM | 81.1 ± 0.5 nM | 80.2 ± 0.6 nM | 48 nM | 54 nM | 54.4 ± 0.5 nM | 70 nM | 5200 nM | 3100 ± 200 nM |  |
| Cn1cc(C=NO)c2cc(-n3nnnc3-c3cc(Cl)nc(Cl)c3)ccc21 [Compound 16, 5-(5-(2,6-dichloropyridin-4-yl)-1H-tetrazol-1-yl)-1-methyl-1H-indole-3-carbaldehyde oxime] | 38.2 ± 0.4 µg/mL (≈ 98.4 µM) | 207 nM | 207.1 ± 2 nM | 210 nM | 210.1 ± 1.9 nM | 131.3 ± 1.1 nM | 220 ± 2.3 nM | 219 nM | 219.1 ± 1.5 nM | 211 nM | 211.1 ± 2 nM |  | 131 nM | 127 nM | 127.3 ± 0.9 nM | 220 nM | 7010 nM | 3700 ± 200 nM |  |
| COc1cc(-c2nnnn2-c2ccc3c(c2)c(C=NO)cn3C)cc(Cl)n1 [Compound 17, 5-(5-(2-chloro-6-methoxypyridin-4-yl)-1H-tetrazol-1-yl)-1-methyl-1H-indole-3-carbaldehyde oxime] | 53 ± 0.3 µg/mL (≈ 138 µM) | 220 nM | 220.2 ± 1.9 nM | 215 nM |  | 155.2 ± 1.3 nM |  | 227 nM |  | 238 nM |  | 230 ± 2.5 nM | 155 nM | 181 nM | 181.4 ± 1.5 nM | 229 nM | 7250 nM | 3800 ± 100 nM |  |
| CSc1cc(-c2nnnn2-c2ccc3c(c2)c(C=NO)cn3C)cc(Cl)n1 [Compound 18, 5-(5-(2-chloro-6-(methylsulfanyl)pyridin-4-yl)-1H-tetrazol-1-yl)-1-methyl-1H-indole-3-carbaldehyde oxime] | 42.7 ± 0.5 µg/mL (≈ 107 µM) | 131 nM |  | 123 nM | 123 ± 1.7 nM | 93.4 ± 1 nM |  | 115 nM | 115 ± 1.3 nM | 152 nM | 152.3 ± 1.4 nM | 150 ± 1.6 nM | 93 nM | 102 nM | 102 ± 1.1 nM | 127 nM | 6130 nM | 3300 ± 100 nM |  |
| CSc1cc(-c2nnnn2-c2ccc3c(c2)c(C=NO)cn3C)cc(SC)n1 [Compound 19, 5-(5-(2,6-bis(methylsulfanyl)pyridin-4-yl)-1H-tetrazol-1-yl)-1-methyl-1H-indole-3-carbaldehyde oxime] | 47.8 ± 0.6 µg/mL (≈ 116 µM) | 307 nM | 307.1 ± 2.8 nM | 339 nM | 339.5 ± 2.4 nM | 275 ± 2.8 nM | 341.4 ± 3.3 nM | 333 nM | 333.2 ± 2.7 nM | 355 nM | 355.5 ± 2.3 nM | 359 ± 4.1 nM | 275 nM | 294 nM | 294 ± 3 nM | 341 nM | 8310 nM | 4300 ± 200 nM |  |
| Cn1nnc2c(C(N)=O)ncn2c1=O [TMZ, temozolomide, reference compound] |  | > 10000 nM |  | > 10000 nM |  |  |  | > 10000 nM |  |  | > 10 nM |  |  |  |  | > 10000 nM | > 10000 nM |  | IC50 ([2]; heading: IC50 HeLa, mean ± SD, Table S1): > 10000 nM; IC50 ([3]; heading: IC50 MCF7, mean ± SD, Table S1): > 10000 nM; IC50 (U87 MG (glioblastoma); 72 h, 72 h after drug exposure): > 100000 nM; IC50 ([4]; heading: IC50 HepG2, mean ± SD, Table S1): > 10000 nM; IC50 ([5]; HCT-8, heading: IC50 HCT8, mean ± SD, Table S1): > 10000 nM; IC50 ([8]; HEK293, heading: IC50 HEK-293, mean ± SD, Table S1, non-tumorigenic cell line): > 10000 nM |
